Assay results: paper PMC7413254 (Nature Communications, 2020)
Read-outs that look alike come from different tables or passages of the source.

Tests used:
[1] = system: non-expressing oocytes; test: cells; format: cell-based, Xenopus laevis; conditions: non-expressing oocytes, total [3H]CQ transport, normalised to the oocyte type control
Outline: (§1)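 Each treatment used ten oocytes, repeated in at least four experiments on different days with oocytes from different frogs. Conditions: ND96 pH 5.5, 27.5 °C, 1.5 h; read-out by scintillation counting.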

[2] = biological target: T1, PfCRT^Dd2 (Plasmodium falciparum, UniProt Q9N623, A220S/I356T/K76T/M74I/N326S/N75E/Q271E/R371I); test: cell-based; format: cell-based; conditions: for Uptake of [3H]CQ (% PfCRTDd2 control), trans-stimulation / PfCRT-mediated [3H]CQ transport, trans-stimulation (% PfCRTDd2 control): PfCRTDd2 oocytes; for Uptake of [3H]CQ (% PfCRTDd2 control), trans-stimulation: total [3H]CQ transport, normalised to the oocyte type control; for PfCRT-mediated [3H]CQ transport, trans-stimulation (% PfCRTDd2 control): normalised to oocyte type control; for [3H]CQ transport (% PfCRTDd2 control), trans-stimulation, PfCRTDd2: PfCRT-mediated component (background subtracted), mean ± SEM, SEM
Outline: (§2)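 Oocytes (ten per treatment, ≥4 independent frogs/days) were preloaded by injecting VF-6 in 25 nL ND96 at pH 5.0, 5.5, 6.0 or 7.0, or Na^+-free choline buffer, then uptake run 1.5 h, 27.5 °C, ND96 pH 5.5 by default. Internal concentrations assumed ~400 nL oocyte volume.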

[3] = biological target: T2, PfCRT^Ecu1110 (Plasmodium falciparum, UniProt Q9N623, A220S/I356L/K76T/N326D); test: cell-based; format: cell-based; conditions: for Uptake of [3H]CQ (% PfCRTEcu1110 control), trans-stimulation / PfCRT-mediated [3H]CQ transport, trans-stimulation (% PfCRTEcu1110 control): PfCRTEcu1110 oocytes; for Uptake of [3H]CQ (% PfCRTEcu1110 control), trans-stimulation: total [3H]CQ transport, normalised to the oocyte type control; for PfCRT-mediated [3H]CQ transport, trans-stimulation (% PfCRTEcu1110 control): normalised to oocyte type control; for [3H]CQ transport (% PfCRTDd2 control), trans-stimulation, PfCRTEcu1110: PfCRT-mediated component (background subtracted), sheet title says normalised to PfCRTDd2 control, mean ± SEM, SEM
Outline: as §2

[4] = biological target: T3, PfCRT^3D7 (Plasmodium falciparum, UniProt Q8IBZ9); test: cell-based; format: cell-based; conditions: PfCRT3D7 oocytes; for Uptake of [3H]CQ (% PfCRT3D7 control), trans-stimulation: total [3H]CQ transport, normalised to the oocyte type control; for PfCRT-mediated [3H]CQ transport, trans-stimulation (% PfCRT3D7 control): normalised to oocyte type control
Outline: as §2

[5] = biological target: T4, PfNT1 (Plasmodium falciparum, UniProt Q8IDM6); test: cell-based; format: cell-based; conditions: PfNT1 oocytes, total [3H]CQ transport, normalised to the oocyte type control
T4 construct: expressed in transfected cells; host or cells: Xenopus laevis oocytes (stage V-VI), cRNA-injected
Outline: as §2

[6] = biological target: T1, PfCRT^Dd2; test: [3H]CQ uptake into Xenopus oocytes, cis-inhibition by unlabelled solute; format: cell-based; conditions: PfCRTDd2 oocytes, background [3H]CQ accumulation subtracted, normalised to oocyte type control
Outline: as §1

[7] = biological target: T2, PfCRT^Ecu1110; test: as above; format: cell-based; conditions: for Uptake of [3H]CQ (% PfCRTEcu1110 control), cis-inhibition / PfCRT-mediated [3H]CQ transport, cis-inhibition (% PfCRTEcu1110 control): PfCRTEcu1110 oocytes; for Uptake of [3H]CQ (% PfCRTEcu1110 control), cis-inhibition: total [3H]CQ transport, normalised to the oocyte type control; for PfCRT-mediated [3H]CQ transport, cis-inhibition (% PfCRTEcu1110 control): background [3H]CQ accumulation subtracted, normalised to oocyte type control; for [3H]CQ transport (% PfCRTEcu1110 control), cis-inhibition, PfCRTEcu1110: PfCRT-mediated component (background subtracted), sheet title says normalised to PfCRTDd2 control, mean ± SEM, SEM
Outline: as §1

[8] = biological target: T3, PfCRT^3D7; test: cell-based; format: cell-based; conditions: PfCRT3D7 oocytes, total [3H]CQ transport, normalised to the oocyte type control
Outline: as §1

[9] = system: non-expressing oocytes; format: cell-based, Xenopus laevis; conditions: non-expressing oocytes, total [3H]CQ transport, normalised to the oocyte type control
Outline: as §2

[10] = [test solute]i = 45 mM (30 mM for some solutes due to solubility)
[11] = [test solute]i = 5 mM (intracellular)
[12] = [test solute]i = 45 mM (intracellular; 30 mM for some solutes due to solubility)
[13] = [test solute]i = 5 mM (injected)

T3 sequence (Q8IBZ9 59-398): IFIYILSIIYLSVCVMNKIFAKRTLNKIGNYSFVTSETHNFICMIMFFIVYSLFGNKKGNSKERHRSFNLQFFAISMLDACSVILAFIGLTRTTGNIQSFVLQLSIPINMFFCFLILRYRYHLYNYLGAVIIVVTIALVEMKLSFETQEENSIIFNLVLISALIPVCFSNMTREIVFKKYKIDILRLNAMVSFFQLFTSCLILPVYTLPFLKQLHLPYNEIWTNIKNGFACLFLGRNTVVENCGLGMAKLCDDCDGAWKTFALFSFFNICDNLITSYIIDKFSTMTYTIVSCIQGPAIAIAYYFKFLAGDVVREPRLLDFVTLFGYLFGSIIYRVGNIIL
T2 sequence (Q9N623 whole entry A220S/I356L/K76T/N326D): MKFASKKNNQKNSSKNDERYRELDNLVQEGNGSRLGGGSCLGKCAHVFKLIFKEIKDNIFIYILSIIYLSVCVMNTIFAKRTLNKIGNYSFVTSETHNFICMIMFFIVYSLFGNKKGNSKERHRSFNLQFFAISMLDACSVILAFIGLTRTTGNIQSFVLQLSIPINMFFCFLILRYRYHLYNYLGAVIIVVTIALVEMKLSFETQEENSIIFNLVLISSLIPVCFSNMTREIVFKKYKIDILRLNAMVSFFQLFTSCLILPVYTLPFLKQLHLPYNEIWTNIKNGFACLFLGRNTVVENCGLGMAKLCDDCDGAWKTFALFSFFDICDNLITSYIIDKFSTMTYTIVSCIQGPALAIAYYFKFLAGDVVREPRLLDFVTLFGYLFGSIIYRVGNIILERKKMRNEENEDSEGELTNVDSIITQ
T1 sequence (Q9N623 whole entry A220S/I356T/K76T/M74I/N326S/N75E/Q271E/R371I): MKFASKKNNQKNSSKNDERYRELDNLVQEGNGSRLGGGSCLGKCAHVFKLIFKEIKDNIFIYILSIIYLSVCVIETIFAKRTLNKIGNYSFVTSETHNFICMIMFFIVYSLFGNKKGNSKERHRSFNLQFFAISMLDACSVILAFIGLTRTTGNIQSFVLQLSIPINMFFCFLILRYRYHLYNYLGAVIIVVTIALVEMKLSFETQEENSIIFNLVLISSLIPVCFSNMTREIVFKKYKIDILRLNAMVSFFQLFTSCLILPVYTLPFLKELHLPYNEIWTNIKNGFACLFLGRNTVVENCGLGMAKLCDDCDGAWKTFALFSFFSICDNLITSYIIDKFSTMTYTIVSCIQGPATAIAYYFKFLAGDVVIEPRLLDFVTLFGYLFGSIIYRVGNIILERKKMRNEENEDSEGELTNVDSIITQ
T4 sequence (Q8IDM6 whole entry): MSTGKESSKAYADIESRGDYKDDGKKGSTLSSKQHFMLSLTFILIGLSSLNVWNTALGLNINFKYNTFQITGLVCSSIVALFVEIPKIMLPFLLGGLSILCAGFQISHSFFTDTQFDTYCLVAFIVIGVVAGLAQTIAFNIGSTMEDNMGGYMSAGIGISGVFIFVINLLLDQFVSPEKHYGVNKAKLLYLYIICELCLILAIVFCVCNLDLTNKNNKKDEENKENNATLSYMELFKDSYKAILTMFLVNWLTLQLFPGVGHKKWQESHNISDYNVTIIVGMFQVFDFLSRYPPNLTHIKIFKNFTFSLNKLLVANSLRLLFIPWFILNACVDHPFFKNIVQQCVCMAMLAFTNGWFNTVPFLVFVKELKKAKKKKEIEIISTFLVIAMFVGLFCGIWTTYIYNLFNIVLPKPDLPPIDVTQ

## PEEK [PK-4]
[1]; [test solute] = 0.5 mM
  Uptake of [3H]CQ (% non-expressing oocyte control), cis-inhibition: 100 ± 5.8 % non-expressing oocyte control
[1]; [test solute] = 1 mM
  Uptake of [3H]CQ (% non-expressing oocyte control), cis-inhibition: 99 ± 5.3 % non-expressing oocyte control
[2]; [test solute]i = 5 mM
  Uptake of [3H]CQ (% PfCRTDd2 control), trans-stimulation: 97 ± 2.1 % PfCRTDd2 control
[2]; [10]
  Uptake of [3H]CQ (% PfCRTDd2 control), trans-stimulation: 97 ± 3.2 % PfCRTDd2 control
  [3H]CQ transport (% PfCRTDd2 control), trans-stimulation, PfCRTDd2: 100 ± 4.3 % PfCRTDd2 control
[2]; [11]
  PfCRT-mediated [3H]CQ transport, trans-stimulation (% PfCRTDd2 control): 95 ± 4.4 % PfCRTDd2 control
[2]; [12]
  PfCRT-mediated [3H]CQ transport, trans-stimulation (% PfCRTDd2 control): 100 ± 4.3 % PfCRTDd2 control
[2]; [13]
  [3H]CQ transport (% PfCRTDd2 control), trans-stimulation, PfCRTDd2: 95 ± 4.4 % PfCRTDd2 control
[3]; [test solute]i = 5 mM
  Uptake of [3H]CQ (% PfCRTEcu1110 control), trans-stimulation: 99 ± 1.4 % PfCRTEcu1110 control
[3]; [10]
  Uptake of [3H]CQ (% PfCRTEcu1110 control), trans-stimulation: 97 ± 2.4 % PfCRTEcu1110 control
  [3H]CQ transport (% PfCRTDd2 control), trans-stimulation, PfCRTEcu1110: 29 ± 1.2 % PfCRTEcu1110 control
[3]; [11]
  PfCRT-mediated [3H]CQ transport, trans-stimulation (% PfCRTEcu1110 control): 97 ± 2.7 % PfCRTEcu1110 control
[3]; [12]
  PfCRT-mediated [3H]CQ transport, trans-stimulation (% PfCRTEcu1110 control): 95 ± 3.5 % PfCRTEcu1110 control
[3]; [13]
  [3H]CQ transport (% PfCRTDd2 control), trans-stimulation, PfCRTEcu1110: 29 ± 1.1 % PfCRTEcu1110 control
[4]; [test solute]i = 5 mM
  Uptake of [3H]CQ (% PfCRT3D7 control), trans-stimulation: 99 ± 2.1 % PfCRT3D7 control
[4]; [10]
  Uptake of [3H]CQ (% PfCRT3D7 control), trans-stimulation: 100 ± 1.7 % PfCRT3D7 control
[4]; [11]
  PfCRT-mediated [3H]CQ transport, trans-stimulation (% PfCRT3D7 control): 97 ± 3.8 % PfCRT3D7 control
[4]; [12]
  PfCRT-mediated [3H]CQ transport, trans-stimulation (% PfCRT3D7 control): 98 ± 3.2 % PfCRT3D7 control
[5]; [test solute]i = 5 mM
  Uptake of [3H]CQ (% PfNT1 control), trans-stimulation: 99 ± 2.1 % PfNT1 control
[5]; [10]
  Uptake of [3H]CQ (% PfNT1 control), trans-stimulation: 100 ± 2.7 % PfNT1 control
[6]; [test solute] = 0.5 mM
  PfCRT-mediated [3H]CQ transport, cis-inhibition (% PfCRTDd2 control): 57 ± 2.0 % PfCRTDd2 control
[6]; [test solute] = 1 mM
  PfCRT-mediated [3H]CQ transport, cis-inhibition (% PfCRTDd2 control): 44 ± 2.1 % PfCRTDd2 control
[6]; [test solute] = 2 mM
  PfCRT-mediated [3H]CQ transport, cis-inhibition (% PfCRTDd2 control): 37 ± 2.2 % PfCRTDd2 control
[7]; [test solute] = 0.5 mM
  Uptake of [3H]CQ (% PfCRTEcu1110 control), cis-inhibition: 51 ± 3.2 % PfCRTEcu1110 control
  PfCRT-mediated [3H]CQ transport, cis-inhibition (% PfCRTEcu1110 control): 46 ± 1.6 % PfCRTEcu1110 control
  [3H]CQ transport (% PfCRTEcu1110 control), cis-inhibition, PfCRTEcu1110: 14 ± 0.2 % PfCRTEcu1110 control
[7]; [test solute] = 1 mM
  Uptake of [3H]CQ (% PfCRTEcu1110 control), cis-inhibition: 47 ± 3.2 % PfCRTEcu1110 control
  PfCRT-mediated [3H]CQ transport, cis-inhibition (% PfCRTEcu1110 control): 42 ± 4.2 % PfCRTEcu1110 control
  [3H]CQ transport (% PfCRTEcu1110 control), cis-inhibition, PfCRTEcu1110: 13 ± 0.4 % PfCRTEcu1110 control
[7]; [test solute] = 2 mM
  Uptake of [3H]CQ (% PfCRTEcu1110 control), cis-inhibition: 33 ± 2.6 % PfCRTEcu1110 control
  PfCRT-mediated [3H]CQ transport, cis-inhibition (% PfCRTEcu1110 control): 27 ± 1.9 % PfCRTEcu1110 control
  [3H]CQ transport (% PfCRTEcu1110 control), cis-inhibition, PfCRTEcu1110: 9.0 ± 0.04 % PfCRTEcu1110 control
[8]; [test solute] = 0.5 mM
  Uptake of [3H]CQ (% PfCRT3D7 control), cis-inhibition: 102 ± 4.4 % PfCRT3D7 control
[8]; [test solute] = 1 mM
  Uptake of [3H]CQ (% PfCRT3D7 control), cis-inhibition: 99 ± 4.7 % PfCRT3D7 control
[8]; [test solute] = 2 mM
  Uptake of [3H]CQ (% PfCRT3D7 control), cis-inhibition: 98 ± 3.7 % PfCRT3D7 control
[9]; [test solute]i = 5 mM
  Uptake of [3H]CQ (% non-expressing oocyte control), trans-stimulation: 100 ± 1.8 % non-expressing oocyte control
[9]; [10]
  Uptake of [3H]CQ (% non-expressing oocyte control), trans-stimulation: 99 ± 1.5 % non-expressing oocyte control
